Laboratory results: patent US8791141B2, “Organic compounds” (Novartis AG, priority 2008, dated 2014)
Structures can show the parent of a compound that is named as a salt.

Key:
[1] = molecular target: T1, CYP11B2 (aldosterone synthase) (Homo sapiens, UniProt P19099); assay: Inhibition of aldosterone secretion in NCI-H295R cells; type: cell-based; details: human adrenocortical carcinoma NCI-H295R cells, 24 hours with cell stimulant
T1 construct: the NCI-H295R cells have CYP11B2 (aldosterone synthase) and CYP11B1 (steroid 11-hydroxylase); host or cells: NCI-H295R
T1 sequence (P19099 25-503): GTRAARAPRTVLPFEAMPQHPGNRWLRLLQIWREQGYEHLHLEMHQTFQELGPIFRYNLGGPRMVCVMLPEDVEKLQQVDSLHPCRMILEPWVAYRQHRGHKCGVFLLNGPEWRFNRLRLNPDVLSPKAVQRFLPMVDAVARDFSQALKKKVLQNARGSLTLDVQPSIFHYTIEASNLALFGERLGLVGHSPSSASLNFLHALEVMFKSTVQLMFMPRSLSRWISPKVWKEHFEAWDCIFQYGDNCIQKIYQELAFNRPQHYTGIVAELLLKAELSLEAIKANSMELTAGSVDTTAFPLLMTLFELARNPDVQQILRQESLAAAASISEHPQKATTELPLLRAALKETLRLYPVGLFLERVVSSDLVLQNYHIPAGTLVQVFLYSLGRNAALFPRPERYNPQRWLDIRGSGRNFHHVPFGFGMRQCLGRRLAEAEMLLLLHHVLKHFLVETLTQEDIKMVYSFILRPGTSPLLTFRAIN
From the text: (§1) The activities of a compound according to the present invention can be assessed by the following in vitro method well-described in the art.
(§2) In particular, the inhibition of aldosterone and cortisol secretion in vitro can be determined by the following assay.
(§3) The cell line NCI-H295R was originally isolated from an adrenocortical carcinoma and has been characterized in the literature through the stimulable secretion of steroid hormones and the presence of the enzymes essential for steroidogenesis. The cells show the physiological property of zonally undifferentiated human foetal adrenocortical cells which, however, have the capacity to produce the steroid hormones which are formed in the three phenotypically distinguishable zones in the adult adrenal cortex. Thus, the NCI-H295R cells have CYP11B2 (aldosterone synthase) and CYP11B1 (steroid 11-hydroxylase).
(§4) The human adrenocortical carcinoma NCI-H295R cell line is obtained from American Type Culture Collection (Manassas, Va.). Insulin/transferrin/selenium (ITS)-A supplement (100×), DMEM/F-12, antibiotic/antimycotic (100×), and fetal calf serum (FCS) are purchased from Invitrogen (Carlsbad, Calif.). Anti-mouse PVT scintillation proximity assay (SPA) beads and NBS 96-well plates are obtained from Amersham (Piscataway, N.J.) and Corning (Acton, Mass.), respectively. Clear bottom 96-well flat bottom plates are purchased from Costar (Corning, N.Y.). Aldosterone and angiotensin (Ang II) are purchased from Sigma (St. Louis, Mo.). D[1,2,6,7-3H(N)]aldosterone and [1,2,6,7-3H(N)]cortisol are acquired from PerkinElmer (Boston, Mass.). Nu-serum is a product of BD Biosciences (Franklin Lakes, N.J.).
(§5) For in vitro measurement of aldosterone and cortisol activity, human adrenocortical carcinoma NCI-H295R cells are seeded in NBS 96-well plates at a density of 25,000 cells/well in 100 μL of a growth medium containing DMEM/F12 supplemented with 10% FCS, 2.5% Nu-serum, 1 μg ITS/ml, and 1× antibiotic/antimycotic. The medium is changed after culturing for 3 days at 37° C. under an atmosphere of 5% CO2/95% air. On the following day, cells are rinsed with 100 μL of DMEM/F12 and incubated in quadruplicate wells at 37° C. for 24 hours with 100 μL of treatment medium containing a cell stimulant and a compound at different concentrations. […] Cell stimulants which can be used are angiotensin-II (1 micromolar), potassium ions (16 millimolar), forskolin (10 micromolar) or a combination of two stimulants. At the end of incubation, the excretion of aldosterone and cortisol into the culture medium can be detected and quantified by commercially available, specific monoclonal antibodies in radioimmunoassays in accordance with the manufacturer's instructions.
(§6) Measurement of aldosterone can also be performed using a 96-well plate format. Each test sample is incubated with 0.02 μCi of D[1,2,6,7-3H(N)]aldosterone and 0.3 μg of anti-aldosterone antibody in phosphate-buffered saline (PBS) containing 0.1% Triton X-100, 0.1% bovine serum albumin, and 12% glycerol in a total volume of 200 μL at room temperature for 1 hour. Anti-mouse PVT SPA beads (50 μL) are then added to each well and incubated overnight at room temperature prior to counting in a Microbeta plate counter. The amount of aldosterone in each sample is calculated by comparing with a standard curve generated using known quantities of the hormone. Measurement of cortisol can be performed in a manner similar to that of aldosterone, except that [1,2,6,7-3H(N)]cortisol is used.
(§7) Inhibition of the release of a steroid can be used as a measure of the respective enzyme inhibition by the added test compounds. The dose-dependent inhibition of enzymatic activity by a compound is calculated by means of an inhibition plot which is characterized by an IC50. […] The inhibition plot is calculated by fitting a 4-parameter logistic function to the raw data points using the least squares method.

[2] = molecular target: T2, CYP11B1 (steroid 11-hydroxylase) (Homo sapiens, UniProt P15538); assay: Inhibition of cortisol secretion in NCI-H295R cells; type: cell-based; details: human adrenocortical carcinoma NCI-H295R cells, 24 hours with cell stimulant
T2 construct: the NCI-H295R cells have CYP11B2 (aldosterone synthase) and CYP11B1 (steroid 11-hydroxylase); host or cells: NCI-H295R
T2 sequence (P15538 25-503): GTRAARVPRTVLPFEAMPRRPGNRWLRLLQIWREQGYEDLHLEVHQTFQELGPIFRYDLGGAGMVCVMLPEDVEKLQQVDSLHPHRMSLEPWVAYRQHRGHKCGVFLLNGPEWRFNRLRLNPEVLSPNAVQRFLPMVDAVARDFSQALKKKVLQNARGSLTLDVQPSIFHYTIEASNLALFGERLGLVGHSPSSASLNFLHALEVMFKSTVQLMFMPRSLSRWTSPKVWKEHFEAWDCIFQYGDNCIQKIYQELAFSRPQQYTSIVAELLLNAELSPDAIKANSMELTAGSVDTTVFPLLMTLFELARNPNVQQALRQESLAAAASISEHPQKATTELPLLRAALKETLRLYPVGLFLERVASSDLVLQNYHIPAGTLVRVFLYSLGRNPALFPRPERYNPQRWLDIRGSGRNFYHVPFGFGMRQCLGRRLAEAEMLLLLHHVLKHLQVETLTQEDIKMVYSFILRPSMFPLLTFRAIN
From the text: as §1, §2, §3, §4, §5, §6, §7

SMILES | IC50 [1] | IC50 [2]
Cc1c(-c2cccnc2)[nH]c2ccc(C#N)cc12 [Example 6, 3-Methyl-2-pyridin-3-yl-1H-indole-5-carbonitrile] | 1 nM | 7 nM
Cc1c(-c2cccnc2)n(Cc2cccc(C#N)c2)c2cc(F)ccc12 [Example 15, 3-(6-Fluoro-3-methyl-2-pyridin-3-yl-1H-indol-1-ylmethyl)-benzonitrile hydrochloride] | 27 nM | 447 nM
Cc1c(-c2cccnc2)n(Cc2ccc(C(=O)O)cc2)c2cccc(F)c12 [Example 33, 4-(4-Fluoro-3-methyl-2-pyridin-3-yl-1H-indol-1-ylmethyl)-benzoic acid] | 14 nM | 662 nM
N#Cc1cccc(C(=O)n2c(-c3cccnc3)cc3cc(C#N)ccc32)c1 [Example 42, 1-(3-Cyano-benzoyl)-2-pyridin-3-yl-1H-indole-5-carbonitrile] | 30 nM | 600 nM
Cc1c(-c2cccnc2)n(COC(=O)C(C)(C)C)c2ccc(Cl)cc12 [Example 65, 2,2-Dimethyl-propionic acid 5-chloro-3-methyl-2-pyridin-3-yl-indol-1-ylmethyl ester] | 10 nM | 240 nM
COc1ccncc1-c1cc2cc(C#N)ccc2[nH]1 [Example 90, 2-(4-Methoxy-pyridin-3-yl)-1H-indole-5-carbonitrile] | 40 nM | 400 nM
Cn1c(-c2cnccc2CO)cc2ccccc21 [Example 106, [3-(1-Methyl-1H-indol-2-yl)-pyridin-4-yl]-methanol] | 85 nM | 530 nM
Cn1c(-c2cncc(OS(C)(=O)=O)c2)c(C#N)c2ccccc21 [Example 138, Methanesulfonic acid 5-(3-cyano-1-methyl-1H-indol-2-yl)-pyridin-3-yl ester] | 43 nM | 326 nM
CC(C)S(=O)(=O)NCc1cncc(-c2c(C#N)c3ccc(Cl)cc3n2C)c1 [Example 186, Propane-2-sulfonic acid [5-(6-chloro-3-cyano-1-methyl-1H-indol-2-yl)-pyridin-3-ylmethyl]amide] | 21 nM | 390 nM
COCCc1cncc(-c2c(C#N)c3ccccc3n2C)c1 [Example 217, 2-[5-(2-Methoxy-ethyl)-pyridin-3-yl]-1-methyl-1H-indole-3-carbonitrile] | 4 nM | 22 nM
CCc1c(-c2cncc(NS(=O)(=O)CC)c2)n(C)c2ccccc12 [Example 229, Ethanesulfonic acid [5-(1-methyl-3-ethyl-1H-indol-2-yl)-pyridin-3-yl]-amide] | 5 nM | 125 nM
CCS(=O)(=O)NCc1cncc(-c2c(C)c3ccccc3n2C)c1 [Example 237, N-((5-(1,3-Dimethyl-1H-indol-2-yl)pyridin-3-yl)methyl)ethanesulfonamide] | 5 nM | 1610 nM

Second part, the compound after the results:

IC50 [1] | IC50 [2] | SMILES
2 nM | 37 nM | COc1cncc(-c2cc3ccccc3n2C)c1 [Example 101, 2-(5-Methoxy-pyridin-3-yl)-1-methyl-1H-indole]
9 nM | 220 nM | Cn1c(-c2cnccc2Cl)cc2ccccc21 [Example 107, 2-(4-Chloro-pyridin-3-yl)-1-methyl-1H-indole]
78 nM | 650 nM | Cn1c(-c2cncc(Cl)c2)c(C#N)c2ccccc21 [Example 123, 2-(5-Chloro-pyridin-3-yl)-1-methyl-1H-indole-3-carbonitrile]
2 nM | 3 nM | Cn1c(-c2cncc(CN3CCN(S(C)(=O)=O)CC3)c2)c(C#N)c2ccc(Cl)cc21 [Example 180, 6-Chloro-2-[5-(4-methanesulfonyl-piperazin-1-ylmethyl)-pyridin-3-yl]-1-methyl-1H-indole-3-carbonitrile]
4 nM | 20 nM | COCCOC(=O)NCc1cncc(-c2c(C#N)c3ccc(Cl)cc3n2C)c1 [Example 192]
3 nM | 19 nM | CC(C)NC(=O)NCc1cncc(-c2c(C#N)c3ccc(Cl)cc3n2C)c1 [Example 196, 1-[5-(6-Chloro-3-cyano-1-methyl-1H-indol-2-yl)-pyridin-3-ylmethyl]-3-isopropyl-urea]
2 nM | 213 nM | CCS(=O)(=O)NCc1cncc(-c2cc3ccc(Cl)cc3n2C)c1 [Example 206, N-[5-(6-Chloro-1-methyl-1H-indol-2-yl)-pyridin-3-ylmethyl]-ethanesulfonamide]
23 nM | 788 nM | Cn1c(-c2cncc(CNS(=O)(=O)CC(F)(F)F)c2)cc2ccc(Cl)cc21 [Example 209, 2,2,2-Trifluoro-ethanesulfonic acid [5-(6-chloro-1-methyl-1H-indol-2-yl)-pyridin-3-ylmethyl]-amide]
56 nM | 377 nM | CC(C)C(=O)C1(CNc2cncc(-c3cc4ccccc4n3C)c2)CCC1 [Example 214, 2-Methyl-1-(1-{[5-(1-methyl-1H-indol-2-yl)-pyridin-3-ylamino]-methyl}-cyclobutyl)-propan-1-one]
36 nM | 345 nM | CCS(=O)(=O)Nc1cncc(-c2cc3ccccc3n2C)c1 [Example 226, Ethanesulfonic acid [5-(1-methyl-1H-indol-2-yl)-pyridin-3-yl]-amide]
105 nM | > 1000 nM | CN(C)S(=O)(=O)Nc1cncc(-c2cc3ccccc3n2C)c1 [Example 228]
2 nM | 51 nM | CCS(=O)(=O)N(C)c1cncc(-c2cc3ccccc3n2C)c1 [Example 231, Ethanesulfonic acid methyl-[5-(1-methyl-1H-indol-2-yl)-pyridin-3-yl]-amide]
21 nM | 1100 nM | CCS(=O)(=O)Nc1cncc(-c2c(C)c3ccccc3n2C)c1 [Example 236, Ethanesulfonic acid [5-(1,3-dimethyl-1H-indol-2-yl)-pyridin-3-yl)-amide]
44 nM | > 1000 nM | CCS(=O)(=O)Nc1cncc(-c2c(COC)c3ccc(Cl)cc3n2C)c1 [Example 238, Ethanesulfonic acid [5-(1-methyl-3-methoxymethyl-6-chloro-1H-indol-2-yl)-pyridin-3-yl)-amide]
